For 14 compounds, IC50, inhibition and Ratio IC50 results are on record in ChEMBL document CHEMBL4602613, “Early identification of promiscuous attributes of aldose reductase inhibitors using a DMSO-perturbation assay” (Bioorg Med Chem Lett, 2020).

For experiment [1], the target named is T1, Aldo-keto reductase family 1 member B1 (Homo sapiens, UniProt P15121). Nature of the experiment: Inhibition of human recombinant AKR1B1 assessed as D,L-glyceraldehyde reduction incubated in sodium phosphate buffer at pH 6.2 in presence of NADPH.
Experiment [2] addresses T1, Aldo-keto reductase family 1 member B1. Briefly: Inhibition of human recombinant AKR1B1 assessed as D,L-glyceraldehyde reduction at 100 uM incubated in sodium phosphate buffer at pH 6.2 in presence of NADPH relative to control.
The target is the same in experiment [3]. Nature of the experiment: Aggregation-based inhibition of human recombinant AKR1B1 assessed as D,L-glyceraldehyde reduction incubated in sodium phosphate buffer at pH 6.2 in presence of NADPH and 0.05% Triton X-100 by detergent-addition assay.
Experiment [4] shares this target. Briefly: Inhibition of human recombinant AKR1B1 assessed as D,L-glyceraldehyde reduction pretreated with 0.3M DMSO followed by compound addition by DMSO-perturbation assay.
The target is the same in experiment [5]. Briefly: Inhibition of human recombinant AKR1B1 assessed as D,L-glyceraldehyde reduction pretreated with 0.7M DMSO followed by compound addition by DMSO-perturbation assay.
Experiment [6] shares this target. Briefly: Ratio of IC50 for human recombinant AKR1B1 in presence of 0.7M DMSO to IC50 for human recombinant AKR1B1 in presence of 0.3M DMSO by DMSO-perturbation assay.
Experiment [7] deals with T2, Aldo-keto reductase family 1 member B10 (Homo sapiens, UniProt O60218). Briefly: Inhibition of AKR1B10 (unknown origin) pretreated with 0.25M DMSO followed by compound treatment by DMSO-perturbation assay.
Experiment [8] concerns the target T2, Aldo-keto reductase family 1 member B10. Nature of the experiment: Inhibition of AKR1B10 (unknown origin) pretreated with 0.42M DMSO followed by compound treatment by DMSO-perturbation assay.
In experiment [9] the target is T1, Aldo-keto reductase family 1 member B1. Nature of the experiment: Aggregation-based inhibition of human recombinant AKR1B1 assessed as D,L-glyceraldehyde reduction at 300 uM incubated in sodium phosphate buffer at pH 6.2 in presence of NADPH and 0.05% Triton X-100 by detergent-addition assay.

T2 sequence (O60218 whole entry): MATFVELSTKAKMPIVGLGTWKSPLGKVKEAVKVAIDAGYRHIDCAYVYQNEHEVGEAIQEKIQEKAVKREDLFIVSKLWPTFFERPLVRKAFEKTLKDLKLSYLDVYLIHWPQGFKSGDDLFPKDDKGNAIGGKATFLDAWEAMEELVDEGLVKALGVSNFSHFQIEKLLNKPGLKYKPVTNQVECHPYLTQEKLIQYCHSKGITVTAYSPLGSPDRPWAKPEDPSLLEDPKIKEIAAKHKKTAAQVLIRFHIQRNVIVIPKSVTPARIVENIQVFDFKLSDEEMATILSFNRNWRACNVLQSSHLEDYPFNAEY

For the compound `CCCCC[C@H](O)CC(=O)CCc1ccc(O)c(OC)c1` [GINGEROL], in experiment [1], the IC50 (in general, the concentration that gives 50% inhibition) is reported as “Not Active”. Also, the inhibition (as a rule, the percentage by which the read-out fell short of the control) in experiment [2] worked out at 4%.
As for `COc1ccc(C(C)=O)c(O)c1`, the inhibition in [2] stood at 2%.
Take `CC(C)=C1C[C@@H]2[C@@H](CCC3(C)NC(=O)NC3=O)[C@]2(C)CC1=O` (stereo not given in full): the IC50 stood at 291 µM in [1] (read-out: IC50) and 453 µM in experiment [3]. Moreover, the inhibition in experiment [2] is 30%.
The matching figures for `CC1(CCc2ccccc2)NC(=O)NC1=O` (stereo not given): 160 µM, 319 µM and 39%.
For the compound `O=C1NC(=O)C(c2ccccc2)(c2ccc(O)cc2)N1` (stereo not given), the IC50 in experiment [1] (read-out: IC50) was 40.6 µM; in experiment [3], 47.9 µM; in [4], 40.6 µM; in experiment [5] it was 64.2 µM. Besides, the inhibition in [2] stood at 71%.
`COc1ccc(C2(C)NC(=O)NC2=O)c(O)c1` (stereo not given): the IC50 in experiment [1] (read-out: IC50) was determined as 295 µM; in experiment [3], 433 µM. For the same compound, the inhibition in experiment [2] is 31%.
As to `Cn1cnc2c1c(=O)n(CCCCC1(C)NC(=O)NC1=O)c(=O)n2C` (stereo not given), the IC50 in experiment [1] (read-out: IC50) amounted to 65.6 µM; in experiment [3], 71.9 µM; in [4], 65.6 µM; in experiment [5], 178 µM. For the same compound, the Ratio IC50 in experiment [6] was 2.7. Also, the inhibition in experiment [2] was 56%.
As for `O=C1NC(=O)C2(CCCc3ccccc32)N1` (stereo not given), the IC50 in [1] (read-out: IC50) amounted to 80.1 µM; in experiment [3], 114 µM. In addition, the inhibition in experiment [2] is 56%.
As to `CC(/C=C1\SC(=S)N(CC(=O)O)C1=O)=C\c1ccccc1`, the values for the IC50 in experiment [7] and in experiment [8] were 0.0352 µM and 0.0393 µM, respectively.
Take `CCCCCCCCC[C@H](O)CC(=O)CCc1ccc(O)c(OC)c1`: the IC50 in experiment [1] (read-out: IC50) turned out to be 126 µM. The inhibition in experiment [2] was 45%; in experiment [9] it was less than 50%.
In the case of `O=C1NC(=O)C(c2ccccc2)N1` (stereo not given), in experiment [2], the inhibition is 34%.
For `CC(=O)CC[C@@H]1[C@H]2CC(=C(C)C)C(=O)C[C@@]12C`, in experiment [2], the inhibition came out at 3%.
Still for that read-out and setting: with `CCCC1NC(=O)NC1=O` (stereo not given) the figure was 19%.
On the same count and under the same terms, the value for `COc1ccc2c(c1)OC(=O)NC2(C)C(N)=O` (stereo not given) was 12%.
